Assay results taken from ChEMBL document CHEMBL1201862, “PubChem BioAssay data set” (2004).
The source made the active and inactive calls.

Assays:
[1] = target: Serine/threonine-protein phosphatase PP1-alpha catalytic subunit (Homo sapiens, UniProt P62136); test: PP1 phosphatase inhibitors, dose response, biochemical, fluorescence (AID 2394)
[2] = target: Serine/threonine-protein phosphatase (Homo sapiens, UniProt Q9BPW0); test: PP5 phosphatase inhibitors, dose response, biochemical, fluorescence (AID 2395)
Hexokinase HKDC1 = target: T1, Hexokinase HKDC1 (Homo sapiens, UniProt Q2TB90); test: HKDC1 hexokinase inhibitors, dose response, biochemical, W721R variant (AID 504729); assay type: functional
T1 sequence (Q2TB90 whole entry): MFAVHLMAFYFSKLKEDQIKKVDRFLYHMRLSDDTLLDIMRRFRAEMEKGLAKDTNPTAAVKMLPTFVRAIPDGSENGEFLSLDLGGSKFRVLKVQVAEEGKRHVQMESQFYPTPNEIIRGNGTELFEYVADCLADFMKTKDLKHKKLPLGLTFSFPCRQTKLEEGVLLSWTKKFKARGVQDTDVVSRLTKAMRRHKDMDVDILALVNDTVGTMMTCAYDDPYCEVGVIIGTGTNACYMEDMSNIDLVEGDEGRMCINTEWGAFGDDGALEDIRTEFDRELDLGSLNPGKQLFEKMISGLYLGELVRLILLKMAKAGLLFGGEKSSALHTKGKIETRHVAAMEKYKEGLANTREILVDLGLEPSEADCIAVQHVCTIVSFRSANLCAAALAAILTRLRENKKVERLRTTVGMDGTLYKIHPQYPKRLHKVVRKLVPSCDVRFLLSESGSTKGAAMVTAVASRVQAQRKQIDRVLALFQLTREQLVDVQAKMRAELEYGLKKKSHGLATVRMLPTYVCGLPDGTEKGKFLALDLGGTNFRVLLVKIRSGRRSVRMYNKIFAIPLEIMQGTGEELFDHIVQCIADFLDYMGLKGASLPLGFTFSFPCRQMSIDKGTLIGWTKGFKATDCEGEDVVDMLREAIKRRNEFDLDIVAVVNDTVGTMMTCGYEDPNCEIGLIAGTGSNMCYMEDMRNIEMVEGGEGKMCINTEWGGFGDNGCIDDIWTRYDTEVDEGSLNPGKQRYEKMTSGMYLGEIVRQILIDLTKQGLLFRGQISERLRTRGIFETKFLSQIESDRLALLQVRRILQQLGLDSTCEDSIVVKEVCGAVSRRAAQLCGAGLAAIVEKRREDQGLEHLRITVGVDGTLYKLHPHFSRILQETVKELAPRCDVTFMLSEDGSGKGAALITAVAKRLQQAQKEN

[3] = NIH-3T3 fibroblast cytotoxicity, dose response, cytotoxicity control, cell-based, fluorescence, Alamar Blue, secondary assay (AID 2327); assay type: functional;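 also: NIH-3T3 mouse fibroblasts cultured with fluconazole at 8 µg/mL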
[4] = C. albicans growth with fluconazole, confirmation, fluorescence, retest (AID 2467); assay type: functional, cell-based
[5] = growth suppression of PTEN-null colon cells, dose response, cell-based, HCT116 PTEN knockout (AID 1047); assay type: functional;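 also: HCT116 colon tumor cells with PTEN knocked out; cells exposed to compound for 60 hours before readout; potency for loss of cell viability measured by luminescence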
[6] = growth suppression of beta-catenin-knockout colon cells, dose response, cell-based, HCT116, human colon tumor (AID 1045); assay type: functional;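 also: HCT116 colon tumor cells with beta catenin knocked out; cells exposed to compound for 60 hours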
[7] = target: T2, Sentrin-specific protease 6 (Homo sapiens, UniProt Q9GZR1); assay type: functional;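 also: Luminescence-based dose-response confirmatory assay of SENP6 inhibition, following up an ultra-high-throughput screen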
T2 sequence (Q9GZR1 whole entry): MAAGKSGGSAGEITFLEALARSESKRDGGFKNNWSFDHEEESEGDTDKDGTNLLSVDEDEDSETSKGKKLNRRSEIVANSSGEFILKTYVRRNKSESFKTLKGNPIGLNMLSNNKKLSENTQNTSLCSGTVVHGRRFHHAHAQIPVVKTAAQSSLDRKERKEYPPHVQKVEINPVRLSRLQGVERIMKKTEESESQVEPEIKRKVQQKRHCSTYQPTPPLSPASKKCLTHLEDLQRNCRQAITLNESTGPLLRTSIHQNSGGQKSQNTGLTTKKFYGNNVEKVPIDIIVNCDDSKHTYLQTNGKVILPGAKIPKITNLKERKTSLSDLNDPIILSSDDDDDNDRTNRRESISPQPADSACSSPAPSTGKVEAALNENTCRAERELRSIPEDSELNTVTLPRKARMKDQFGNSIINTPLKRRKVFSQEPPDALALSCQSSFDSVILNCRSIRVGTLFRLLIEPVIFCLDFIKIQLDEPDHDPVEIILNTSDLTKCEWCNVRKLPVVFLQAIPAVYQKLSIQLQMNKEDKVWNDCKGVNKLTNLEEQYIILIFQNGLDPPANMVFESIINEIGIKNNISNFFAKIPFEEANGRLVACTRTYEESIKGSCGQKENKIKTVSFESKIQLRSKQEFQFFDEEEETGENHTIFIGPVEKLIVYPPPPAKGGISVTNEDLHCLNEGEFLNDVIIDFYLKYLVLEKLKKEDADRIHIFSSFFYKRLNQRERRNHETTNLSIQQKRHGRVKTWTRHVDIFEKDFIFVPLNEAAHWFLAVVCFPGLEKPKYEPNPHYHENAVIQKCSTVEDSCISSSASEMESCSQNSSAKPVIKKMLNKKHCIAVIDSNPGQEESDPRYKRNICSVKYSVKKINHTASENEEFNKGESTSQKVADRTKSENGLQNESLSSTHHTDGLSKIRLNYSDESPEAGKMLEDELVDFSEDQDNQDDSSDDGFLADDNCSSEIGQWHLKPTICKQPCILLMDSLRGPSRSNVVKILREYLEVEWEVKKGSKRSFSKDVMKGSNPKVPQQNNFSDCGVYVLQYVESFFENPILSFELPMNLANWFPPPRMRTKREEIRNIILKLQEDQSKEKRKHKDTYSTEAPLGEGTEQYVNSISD

[8] = target: T3, Sentrin-specific protease 8 (Homo sapiens, UniProt Q96LD8); assay type: functional;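 also: luminescence read-out of SENP8 inhibition, dose-response confirmation following an ultra-high-throughput screen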
T3 sequence (Q96LD8 whole entry): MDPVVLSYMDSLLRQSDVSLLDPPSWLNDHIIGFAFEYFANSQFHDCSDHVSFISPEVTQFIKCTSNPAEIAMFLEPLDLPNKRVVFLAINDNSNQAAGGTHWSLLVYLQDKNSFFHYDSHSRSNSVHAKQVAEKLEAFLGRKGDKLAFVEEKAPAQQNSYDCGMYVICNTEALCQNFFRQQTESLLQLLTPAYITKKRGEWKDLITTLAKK

[9] = target: Tyrosyl-DNA phosphodiesterase 2 (Homo sapiens, UniProt O95551); test: human TDP2 enzyme inhibitors, dose response, biochemical, epi absorbance, IC50 (AID 743297)
Sequence of Tyrosyl-DNA phosphodiesterase 2 (O95551 whole entry): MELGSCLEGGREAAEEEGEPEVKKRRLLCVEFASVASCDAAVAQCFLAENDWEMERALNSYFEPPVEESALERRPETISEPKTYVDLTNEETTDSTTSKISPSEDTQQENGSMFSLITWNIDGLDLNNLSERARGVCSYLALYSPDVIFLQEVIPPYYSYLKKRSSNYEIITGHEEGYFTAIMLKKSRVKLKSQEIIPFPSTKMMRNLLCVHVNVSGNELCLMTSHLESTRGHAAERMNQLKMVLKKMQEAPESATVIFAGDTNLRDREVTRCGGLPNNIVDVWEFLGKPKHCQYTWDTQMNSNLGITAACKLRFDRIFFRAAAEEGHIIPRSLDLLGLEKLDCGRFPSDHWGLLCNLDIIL

Sequence of Serine/threonine-protein phosphatase (Q9BPW0 whole entry): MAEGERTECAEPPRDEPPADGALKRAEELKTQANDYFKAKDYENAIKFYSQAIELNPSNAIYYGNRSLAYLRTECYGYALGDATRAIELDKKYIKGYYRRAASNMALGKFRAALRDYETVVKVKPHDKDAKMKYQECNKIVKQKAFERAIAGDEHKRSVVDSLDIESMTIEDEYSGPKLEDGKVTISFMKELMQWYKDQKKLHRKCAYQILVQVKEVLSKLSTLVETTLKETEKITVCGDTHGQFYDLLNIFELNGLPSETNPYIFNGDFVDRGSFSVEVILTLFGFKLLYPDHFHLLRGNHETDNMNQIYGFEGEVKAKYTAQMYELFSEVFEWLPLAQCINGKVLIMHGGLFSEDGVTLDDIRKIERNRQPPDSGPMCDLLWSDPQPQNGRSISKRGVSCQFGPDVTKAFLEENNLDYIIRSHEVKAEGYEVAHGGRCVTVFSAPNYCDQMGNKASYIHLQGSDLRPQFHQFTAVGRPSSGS
Sequence of Serine/threonine-protein phosphatase PP1-alpha catalytic subunit (P62136 whole entry): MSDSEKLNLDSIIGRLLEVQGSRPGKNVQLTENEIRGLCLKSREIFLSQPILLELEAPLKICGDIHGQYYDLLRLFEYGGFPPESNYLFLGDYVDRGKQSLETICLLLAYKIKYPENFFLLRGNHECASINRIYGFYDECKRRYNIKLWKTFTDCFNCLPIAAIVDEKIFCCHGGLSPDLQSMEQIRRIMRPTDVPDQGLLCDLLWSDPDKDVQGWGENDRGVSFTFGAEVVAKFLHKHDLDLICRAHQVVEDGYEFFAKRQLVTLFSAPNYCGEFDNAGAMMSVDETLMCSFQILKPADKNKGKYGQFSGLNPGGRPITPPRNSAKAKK

| Compound | IC50 [1] | IC50 [2] | IC50 (Hexokinase HKDC1) | EC50 [3] | EC50 [4] | EC50 [5] | EC50 [6] | IC50 [7] | IC50 [8] | IC50 [9] |
| --- | --- | --- | --- | --- | --- | --- | --- | --- | --- | --- |
| O=C(O)c1ccc(S(=O)(=O)/N=C2\C=C(Nc3ccccc3F)C(=O)c3ccccc32)cc1 | 15.5 µM (not active) | > 67 µM (not active) | 3 µM (active) | – | – | – | – | – | – | – |
| Cc1ccc(NC2=CC(=O)C(=O)c3ccccc32)cc1 | – | – | – | 20.5 µM (active) | 0.451 µM (active) | 6.79 µM (active) | 4.52 µM (active) | 13.5 µM (active) | 21.6 µM (active) | 26.2 µM (inactive) |
